Source: the NIST ThermoML archive (doi:10.1021/je020205i)

Assay: xn = mol fraction of the nth substance listed
Details: Fluid (supercritical or subcritical phases), Taylor dispersion method, x1 = 0

CCCCCC=CCC=CCC=CCC=CCCCC(=O)O [5,8,11,14-eicosatetraenoic acid] + O=C=O
Details	binary diffusion coefficient [m2/s]
308.15 K, 9500 kPa	7.5e-09
308.15 K, 10000 kPa	7.17e-09
308.15 K, 10520 kPa	7.03e-09
308.15 K, 10870 kPa	6.75e-09
308.15 K, 11000 kPa	6.58e-09
308.15 K, 11500 kPa	6.57e-09
308.15 K, 12010 kPa	6.7e-09
308.15 K, 12020 kPa	6.48e-09
308.15 K, 12490 kPa	6.27e-09
308.15 K, 12990 kPa	6.18e-09
308.15 K, 14000 kPa	6.17e-09
308.15 K, 15990 kPa	5.9e-09
308.15 K, 17990 kPa	5.63e-09
308.15 K, 20010 kPa	5.48e-09
308.15 K, 22000 kPa	5.38e-09
308.15 K, 24000 kPa	5.25e-09
308.15 K, 26000 kPa	5.11e-09
308.15 K, 28010 kPa	5.02e-09
308.15 K, 30240 kPa	4.99e-09
308.15 K, 30490 kPa	4.85e-09
313.21 K, 9500 kPa	9.04e-09
313.21 K, 10000 kPa	8.41e-09
313.21 K, 11010 kPa	7.76e-09
313.21 K, 12010 kPa	7.1e-09
313.21 K, 14000 kPa	6.66e-09
313.21 K, 16000 kPa	6.29e-09
313.21 K, 18000 kPa	6.06e-09
313.21 K, 20000 kPa	5.78e-09
313.21 K, 22010 kPa	5.64e-09
313.21 K, 24010 kPa	5.53e-09
313.21 K, 26010 kPa	5.36e-09
313.21 K, 28020 kPa	5.24e-09
313.21 K, 30040 kPa	5.1e-09
313.21 K, 30130 kPa	5.1e-09
323.15 K, 12010 kPa	9.02e-09
323.15 K, 12500 kPa	9.07e-09
323.15 K, 13020 kPa	8.66e-09
323.15 K, 13480 kPa	8.28e-09
323.15 K, 14010 kPa	8.15e-09
323.15 K, 15990 kPa	7.44e-09
323.15 K, 18000 kPa	7.03e-09
323.15 K, 20020 kPa	6.78e-09
323.15 K, 21990 kPa	6.42e-09
323.15 K, 24000 kPa	6.21e-09
323.15 K, 26000 kPa	6.02e-09
323.15 K, 28020 kPa	5.88e-09
323.15 K, 30050 kPa	5.64e-09
323.15 K, 30060 kPa	5.82e-09
333.15 K, 13890 kPa	1.05e-08
333.15 K, 15030 kPa	9.16e-09
333.15 K, 15500 kPa	9.04e-09
333.15 K, 16980 kPa	8.47e-09
333.15 K, 17500 kPa	8.32e-09
333.15 K, 19010 kPa	7.91e-09
333.15 K, 19990 kPa	7.67e-09
333.15 K, 22010 kPa	7.26e-09
333.15 K, 24000 kPa	7.01e-09
333.15 K, 26010 kPa	6.81e-09
333.15 K, 26060 kPa	6.78e-09
333.15 K, 28030 kPa	6.68e-09
333.15 K, 30160 kPa	6.49e-09
343.15 K, 16200 kPa	1.01e-08
343.15 K, 16990 kPa	9.57e-09
343.15 K, 17490 kPa	9.45e-09
343.15 K, 18010 kPa	9.14e-09
343.15 K, 18990 kPa	8.93e-09
343.15 K, 19990 kPa	8.61e-09
343.15 K, 21000 kPa	8.46e-09
343.15 K, 22010 kPa	8.32e-09
343.15 K, 22980 kPa	7.87e-09
343.15 K, 23990 kPa	7.79e-09
343.15 K, 26000 kPa	7.58e-09
343.15 K, 28000 kPa	7.12e-09
343.15 K, 28050 kPa	7.3e-09
343.15 K, 30260 kPa	7.13e-09

CCCCC/C=C\C/C=C\CCCCCCCC(=O)O [(Z,Z)-9,12-octadecadienoic acid] + O=C=O
Details	binary diffusion coefficient [m2/s]
308.15 K, 8500 kPa	8.7e-09
308.15 K, 8970 kPa	8.31e-09
308.15 K, 10000 kPa	7.53e-09
308.15 K, 11020 kPa	7.33e-09
308.15 K, 12000 kPa	6.89e-09
308.15 K, 14000 kPa	6.45e-09
308.15 K, 16010 kPa	6.13e-09
308.15 K, 17470 kPa	6.02e-09
308.15 K, 18020 kPa	5.9e-09
308.15 K, 20000 kPa	5.85e-09
308.15 K, 21000 kPa	5.71e-09
308.15 K, 22030 kPa	5.69e-09
308.15 K, 25000 kPa	5.26e-09
308.15 K, 26000 kPa	5.2e-09
308.15 K, 28050 kPa	5.05e-09
308.15 K, 30300 kPa	4.96e-09
313.21 K, 9490 kPa	9.47e-09
313.21 K, 10040 kPa	8.74e-09
313.21 K, 10990 kPa	8.03e-09
313.21 K, 12000 kPa	7.7e-09
313.21 K, 14020 kPa	7.17e-09
313.21 K, 15980 kPa	6.75e-09
313.21 K, 17980 kPa	6.47e-09
313.21 K, 20000 kPa	6.13e-09
313.21 K, 21990 kPa	5.97e-09
313.21 K, 24000 kPa	5.77e-09
313.21 K, 26010 kPa	5.63e-09
313.21 K, 27990 kPa	5.46e-09
313.21 K, 30040 kPa	5.49e-09
313.21 K, 30110 kPa	5.39e-09
323.15 K, 12020 kPa	8.9e-09
323.15 K, 12510 kPa	9.15e-09
323.15 K, 13000 kPa	8.86e-09
323.15 K, 14000 kPa	8.58e-09
323.15 K, 16000 kPa	7.76e-09
323.15 K, 18000 kPa	7.39e-09
323.15 K, 20010 kPa	7.06e-09
323.15 K, 22000 kPa	6.83e-09
323.15 K, 24000 kPa	6.57e-09
323.15 K, 26000 kPa	6.37e-09
323.15 K, 28020 kPa	6.12e-09
323.15 K, 30290 kPa	5.9e-09
333.15 K, 13890 kPa	9.59e-09
333.15 K, 14480 kPa	9.99e-09
333.15 K, 15000 kPa	9.67e-09
333.15 K, 15980 kPa	9.33e-09
333.15 K, 18000 kPa	8.66e-09
333.15 K, 20000 kPa	8.28e-09
333.15 K, 20050 kPa	8.17e-09
333.15 K, 22000 kPa	7.82e-09
333.15 K, 24020 kPa	7.58e-09
333.15 K, 26060 kPa	7.21e-09
333.15 K, 27020 kPa	7.14e-09
333.15 K, 28020 kPa	7.03e-09
333.15 K, 29040 kPa	6.99e-09
333.15 K, 30070 kPa	6.82e-09
343.15 K, 16200 kPa	1.02e-08
343.15 K, 16210 kPa	1.04e-08
343.15 K, 16990 kPa	1.02e-08
343.15 K, 17990 kPa	9.85e-09
343.15 K, 18000 kPa	9.84e-09
343.15 K, 18990 kPa	9.43e-09
343.15 K, 20000 kPa	9.01e-09
343.15 K, 20040 kPa	9.18e-09
343.15 K, 22000 kPa	8.71e-09
343.15 K, 24000 kPa	8.37e-09
343.15 K, 26010 kPa	8.11e-09
343.15 K, 26990 kPa	7.88e-09
343.15 K, 28010 kPa	7.77e-09
343.15 K, 29050 kPa	7.81e-09
343.15 K, 30030 kPa	7.64e-09
